In patent publication US7132419B2, “Pharmaceutical compounds” (Xenova Limited, priority 2000, dated 2006):

Columns and labels:
[1] = system: Jurkat human leukaemia cell line (JLC); experiment: Cytotoxicity, Jurkat leukaemia cell line JLC; format: cell-based; conditions: concentration required to give 50% cell kill
Description: (§1) The cytotoxicity of the compounds described herein was also measured using the Jurkat human leukaemia cell line (JLC) and also the amsacrine-resistant Jurkat human leukaemia cell line (JLA) and the doxorubicin-resistant Jurkat human leukaemia cell line (JLD). The cytotoxicity, as measured by the IC50 (concentration required to give 50% cell kill) in the JLA or JLD cell line divided by the cytotoxicity in the JLC cell line gives an indication of the degree to which a compound may be affected by atypical drug resistance and is termed the resistance factor (Rf) of the compound. The method used has been described previously (Finlay et al, Eur J. Cancer 32A, 708–714, 1996). Compounds were active in the range 1 nM to 5 μM.

[2] = system: amsacrine-resistant Jurkat human leukaemia cell line (JLA); experiment: Cytotoxicity, amsacrine-resistant Jurkat cell line JLA; format: cell-based; conditions: for IC50: concentration required to give 50% cell kill; for Rf (JLA/JLC): IC50 in JLA divided by IC50 in JLC, atypical drug resistance
Description: as §1

[3] = system: doxorubicin-resistant Jurkat human leukaemia cell line (JLD); experiment: Cytotoxicity, doxorubicin-resistant Jurkat cell line JLD; format: cell-based; conditions: for IC50: concentration required to give 50% cell kill; for Rf (JLD/JLC): IC50 in JLD divided by IC50 in JLC, atypical drug resistance
Description: as §1

[4] = system: H69 parental (H69/P) human small cell lung carcinoma cell line; experiment: Cytotoxicity, H69 parental cell line (AlamarBlue); format: cell-based; conditions: concentration required to give 50% cell kill, 5–6 days incubation
Description: (§2) The cytotoxicity of compounds of formula (I) was measured using the H69 parental (H69/P) human small cell lung carcinoma cell line and the drug resistant human small cell lung carcinoma cell line H69/LX4 which overexpresses P-glycoprotein (Pgp). The cytotoxicity, as measured by the IC50 (concentration required to give 50% cell kill) in the H69/LX4 cell line divided by the cytotoxicity in the H69/P cell line gives an indication of the degree to which a compound is affected by Pgp-dependent MDR and is termed the resistance factor (Rf) of the compound.
(§3) H69/P and H69/LX4 cells were pipetted into 96-well tissue culture plates and then allowed to incubate at 37° C. for 4 h. […] The plates were incubated for 5–6 days before adding AlamarBlue to each well and returning the plates to the incubator for 5–8 h to allow colour development. The cell numbers in the plates at the end of this period were directly proportional to the absorbance measured at a wavelength of 570 nm (reference wavelength 600 nm).

[5] = system: drug resistant human small cell lung carcinoma cell line H69/LX4 which overexpresses P-glycoprotein (Pgp); experiment: Cytotoxicity, drug resistant H69/LX4 cell line (AlamarBlue); format: cell-based; conditions: for Rf (resistance factor): IC50 in H69/LX4 divided by IC50 in H69/P, Pgp-dependent MDR; for IC50: concentration required to give 50% cell kill, 5–6 days incubation
Description: as §2, §3

[6] = system: COR-L23 parental (COR-L23/P) human non-small cell lung carcinoma cell line; experiment: Cytotoxicity, COR-L23 parental cell line (SRB assay); format: cell-based; conditions: concentration required to give 50% cell kill, 5–6 days incubation
Description: (§4) The cytotoxicity of the compounds described herein was also measured using the COR-L23 parental (COR-L23/P) human non-small cell lung carcinoma cell line and also the drug resistant human non-small cell lung carcinoma cell line COR-L23/R which overexpresses multidrug resistance associated protein (MRP). The cytotoxicity, as measured by the IC50 (concentration required to give 50% cell kill) in the L23/R cell line divided by the cytotoxicity in the L23/P cell line gives an indication of the degree to which a compound may be affected by MRP-dependant MDR and is termed the resistance factor (Rf) of the compound.
(§5) L23/P and L23/R cells were pipetted into 96-well tissue culture plates and then allowed to incubate at 37° C. for 4 h. […] The plates were incubated for 5–6 days before proliferation was assessed using the sulphurhodamine B (SRB) assay as described by Skehan et al, J Natl Cancer Inst 1990, 82, pp 1107–1112.

[7] = system: drug resistant human non-small cell lung carcinoma cell line COR-L23/R which overexpresses multidrug resistance associated protein (MRP); experiment: Cytotoxicity, drug resistant COR-L23/R cell line (SRB assay); format: cell-based; conditions: for Rf (resistance factor): IC50 in L23/R divided by IC50 in L23/P, MRP-dependant MDR; for IC50: concentration required to give 50% cell kill, 5–6 days incubation
Description: as §4, §5

topoisomerase I = target: T1, topoisomerase I (Homo sapiens, UniProt P11387); experiment: Stabilisation of cleavable complexes, topoisomerase I; format: biochemical; conditions: range where an increase in cleavable complexes was observed relative to controls in the absence of drug
T1 sequence (P11387 1-765): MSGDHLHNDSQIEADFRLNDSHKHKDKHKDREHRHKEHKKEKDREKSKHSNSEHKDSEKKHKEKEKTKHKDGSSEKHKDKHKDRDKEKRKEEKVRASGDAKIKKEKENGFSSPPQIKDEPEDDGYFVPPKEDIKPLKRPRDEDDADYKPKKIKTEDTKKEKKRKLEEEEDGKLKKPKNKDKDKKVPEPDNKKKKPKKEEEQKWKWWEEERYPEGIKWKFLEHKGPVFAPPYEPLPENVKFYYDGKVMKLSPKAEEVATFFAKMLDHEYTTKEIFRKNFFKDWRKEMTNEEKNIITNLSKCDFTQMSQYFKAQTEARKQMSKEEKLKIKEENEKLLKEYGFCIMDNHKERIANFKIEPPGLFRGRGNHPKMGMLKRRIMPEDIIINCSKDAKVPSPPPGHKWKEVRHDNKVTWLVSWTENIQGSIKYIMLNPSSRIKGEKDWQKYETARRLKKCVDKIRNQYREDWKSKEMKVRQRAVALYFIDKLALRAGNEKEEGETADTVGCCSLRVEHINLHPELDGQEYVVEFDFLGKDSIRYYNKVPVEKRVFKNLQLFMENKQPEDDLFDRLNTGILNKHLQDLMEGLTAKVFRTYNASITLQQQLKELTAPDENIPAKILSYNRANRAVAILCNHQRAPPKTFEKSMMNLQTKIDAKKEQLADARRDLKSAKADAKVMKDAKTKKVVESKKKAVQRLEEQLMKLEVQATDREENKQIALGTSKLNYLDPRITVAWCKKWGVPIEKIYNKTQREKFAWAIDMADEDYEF
Description: (§6) Compounds were also studied for their ability to stabilize cleavable complexes in the presence of either topoisomerase I or II essentially as described previously (Finlay et al, Eur J. Cancer 32A, 708–714, 1996). Presence of cleavable complexes was indicated by an increase in the number and intensity of bands observed after electrophoresis and autoradiography. The results are expressed as the effective concentration range where an increase in cleavable complexes was observed relative to controls in the absence of drug.

topoisomerase II = experiment: Stabilisation of cleavable complexes, topoisomerase II; format: biochemical; conditions: range where an increase in cleavable complexes was observed relative to controls in the absence of drug
Description: as §6

[8] = Cytotoxicity, drug resistant COR-L23/R cell line (SRB assay); format: cell-based, human; conditions: Homo sapiens, COR-L23/R; concentration required to give 50% cell kill; 5–6 days incubation
Description: as §4, §5

| SMILES | IC50 ([1]; Homo sapiens, Jurkat) [µM] | IC50 ([2]; Homo sapiens, Jurkat) [µM] | Rf (JLA/JLC) [2] | IC50 ([3]; Homo sapiens, Jurkat) [µM] | Rf (JLD/JLC) [3] | IC50 [4] [µM] | Rf (resistance factor) [5] | IC50 [5] [µM] | IC50 [6] [µM] | Rf (resistance factor) [7] | IC50 [7] [µM] | IC50 [1] [µM] | IC50 [2] [µM] | IC50 [3] [µM] | Effective concentration range, Topoisomerase I (topoisomerase I) [µM] | Effective concentration range, Topoisomerase II (topoisomerase II) [µM] | IC50 ([4]; Homo sapiens) [µM] | IC50 ([5]; Homo sapiens) [µM] | IC50 ([6]; Homo sapiens, COR-L23) [µM] | IC50 [8] [µM] |
| --- | --- | --- | --- | --- | --- | --- | --- | --- | --- | --- | --- | --- | --- | --- | --- | --- | --- | --- | --- | --- |
| CN(C)CCNC(=O)c1cccc2nc3ccc4cc(O)ccc4c3nc12 [Compound 2, 3-Hydroxy-benzo[a]phenazine-11-carboxylic acid (2-dimethylamino-ethyl)-amide] | 0.037 | 0.096 | 2.6 | 0.107 | 2.9 |  |  |  |  |  |  |  |  |  |  |  |  |  |  |  |
| Br.CN(C)CCNC(=O)c1cccc2nc3ccc4c(O)cccc4c3nc12 [Compound 4, 4-Hydroxy-benzo[a]phenazine-11-carboxylic acid (2-dimethylamino-ethyl)-amide: hydrobromide salt] |  |  | 1.4 |  | 1.2 | 0.035 | 1.4 | 0.048 | 0.0147 | 1.1 | 0.0168 | 0.019 | 0.0266 | 0.0228 | 0.1 to 3.0 | 0.1 to 3.0 |  |  |  |  |
| CN(C)CCNC(=O)c1cccc2nc3ccc4c(OCC#N)cccc4c3nc12 [Compound 11, 4-Cyanomethoxy-benzo[a]phenazine-11-carboxylic acid (2-dimethylamino-ethyl)-amide] |  |  |  |  |  |  | 0.9 |  |  | 2.9 |  |  |  |  |  |  | 0.028 | 0.024 | 0.0061 | 0.0177 |
| COc1cccc2c1ccc1nc3cccc(C(=O)NC(C)CN(C)C)c3nc12 (centres unmarked) [Compound 35, 4-Methoxy-benzo[a]phenazine-11-carboxylic acid (2-dimethylamino-1-methyl-ethyl)-amide] | 0.028 | 0.019 | 0.7 | 0.025 | 0.9 |  |  |  |  |  |  |  |  |  | 0.03 to 1.0 | 0.03 to 1.0 |  |  |  |  |
| CN(C)CCNC(=O)c1c(O)ccc2nc3ccc4c(O)cccc4c3nc12 [Compound 68, 4,10-Dihydroxy-benzo[a]phenazine-11-carboxylic acid (2-dimethylamino-ethyl)-amide] |  |  |  |  |  |  | 1.3 |  |  | 3.4 |  |  |  |  |  |  | 0.019 | 0.025 | 0.0131 | 0.0444 |
| COc1cccc2c1ccc1nc3cccc(C(=O)NC(CO)CN(C)C)c3nc12 (centres unmarked) [Compound 75, 4-Methoxy-benzo[a]phenazine-11-carboxylic acid (2-dimethylamino-1-hydroxymethyl-ethyl)-amide] |  |  |  |  |  |  | 1.2 |  |  | 1.3 |  |  |  |  |  |  | 0.023 | 0.028 | 0.013 | 0.0172 |
| COc1cccc2c1ccc1nc3cccc(C(=O)N[C@H](CO)CN(C)C)c3nc12 [Compound 81, 4-Methoxy-benzo[a]phenazine-11-carboxylic acid (2-dimethylamino-1-(S)-hydroxymethyl-ethyl)-amide] | 0.0087 | 0.0092 | 1.1 | 0.0093 | 1.1 |  | 1.2 |  |  | 3.1 |  |  |  |  |  |  | 0.02 | 0.025 | 0.004 | 0.0124 |
| COc1cccc2c1ccc1nc3cccc(C(=O)NC(CN(C)C)C(C)O)c3nc12 (centres unmarked) [Compound 84, 4-Methoxy-benzo[a]phenazine-11-carboxylic acid (1-dimethylaminomethyl-2-hydroxy-propyl)-amide] | 0.0044 | 0.0098 | 2.2 | 0.0072 | 1.6 |  | 1 |  |  |  |  |  |  |  | 0.03 to 1.0 | 0.03 to 1.0 | 0.019 | 0.019 |  |  |
| COc1cccc2c1ccc1nc3cccc(C(=O)NC(C)(CCO)N(C)C)c3nc12 (centres unmarked) [Compound 87, 4-Methoxy-benzo[a]phenazine-11-carboxylic acid [1-dimethylamino-1-(2-hydroxyethyl)]-ethylamide] |  |  | 1.0 |  | 1.0 |  |  |  |  |  |  | 0.016 | 0.016 | 0.017 |  |  |  |  |  |  |
| COc1cc(C(=O)NCCN(C)C)c2nc3c(ccc4c(OC)cccc43)nc2c1 [Compound 94, 4,9-Dimethoxy-benzo[a]phenazine-11-carboxylic acid (2-dimethylamino-ethyl)-amide] | 0.0092 | 0.016 | 1.8 | 0.014 | 1.6 |  | 1.3 |  |  | 0.7 |  |  |  |  |  |  | 0.019 | 0.025 | 0.0057 | 0.0038 |
| COc1cccc2c1ccc1nc3cccc(C(=O)N[C@@H](CN(C)C)C(C)C)c3nc12 [Compound 98, (R)-4-Methoxy-benzo[a]phenazine-11-carboxylic acid(1-dimethylaminomethyl-2-methyl-propyl)-amide] |  |  | 2.1 |  | 1.6 | 0.021 | 1 | 0.02 | 0.0096 | 0.9 | 0.0088 | 0.0086 | 0.018 | 0.014 |  |  |  |  |  |  |
| COc1cccc2c1C(=O)c1c(O)c3c(c(O)c1C2=O)C[C@@](O)(C(=O)CO)C[C@@H]3O[C@H]1C[C@H](N)[C@H](O)[C@H](C)O1 [Doxorubicin, reference compound] | 0.007 |  | 3.7 |  |  |  | 135 |  |  | 16.1 |  |  |  |  |  |  |  | 3.7 |  |  |
| CC[C@@]1(O)C(=O)OCc2c1cc1n(c2=O)Cc2cc3c(CN(C)C)c(O)ccc3nc2-1 [Topotecan, reference compound] |  |  |  |  |  |  | 3.9 |  |  | 1.5 |  |  |  |  |  |  |  |  |  |  |
